Experimental findings from ChEMBL document CHEMBL4354881, “Optimization of Potent ATAD2 and CECR2 Bromodomain Inhibitors with an Atypical Binding Mode” (J Med Chem, 2020) are described below.

Structures are written as SMILES. pIC50: −log10 of the molar value. Where only a bound is given, the exact number is not on record here.

Assay [1] deals with Chromatin remodeling regulator CECR2 (Homo sapiens, UniProt Q9BXF3). Description: Displacement of Alexa Fluor 647-labeled GSK tracer from FLAG-6His-Tev-fused CECR2 (424 to 543 residue) (unknown origin) measured after 15 mins by TR-FRET assay.
Chain of Chromatin remodeling regulator CECR2 (Q9BXF3 whole entry, the tested form may be a part): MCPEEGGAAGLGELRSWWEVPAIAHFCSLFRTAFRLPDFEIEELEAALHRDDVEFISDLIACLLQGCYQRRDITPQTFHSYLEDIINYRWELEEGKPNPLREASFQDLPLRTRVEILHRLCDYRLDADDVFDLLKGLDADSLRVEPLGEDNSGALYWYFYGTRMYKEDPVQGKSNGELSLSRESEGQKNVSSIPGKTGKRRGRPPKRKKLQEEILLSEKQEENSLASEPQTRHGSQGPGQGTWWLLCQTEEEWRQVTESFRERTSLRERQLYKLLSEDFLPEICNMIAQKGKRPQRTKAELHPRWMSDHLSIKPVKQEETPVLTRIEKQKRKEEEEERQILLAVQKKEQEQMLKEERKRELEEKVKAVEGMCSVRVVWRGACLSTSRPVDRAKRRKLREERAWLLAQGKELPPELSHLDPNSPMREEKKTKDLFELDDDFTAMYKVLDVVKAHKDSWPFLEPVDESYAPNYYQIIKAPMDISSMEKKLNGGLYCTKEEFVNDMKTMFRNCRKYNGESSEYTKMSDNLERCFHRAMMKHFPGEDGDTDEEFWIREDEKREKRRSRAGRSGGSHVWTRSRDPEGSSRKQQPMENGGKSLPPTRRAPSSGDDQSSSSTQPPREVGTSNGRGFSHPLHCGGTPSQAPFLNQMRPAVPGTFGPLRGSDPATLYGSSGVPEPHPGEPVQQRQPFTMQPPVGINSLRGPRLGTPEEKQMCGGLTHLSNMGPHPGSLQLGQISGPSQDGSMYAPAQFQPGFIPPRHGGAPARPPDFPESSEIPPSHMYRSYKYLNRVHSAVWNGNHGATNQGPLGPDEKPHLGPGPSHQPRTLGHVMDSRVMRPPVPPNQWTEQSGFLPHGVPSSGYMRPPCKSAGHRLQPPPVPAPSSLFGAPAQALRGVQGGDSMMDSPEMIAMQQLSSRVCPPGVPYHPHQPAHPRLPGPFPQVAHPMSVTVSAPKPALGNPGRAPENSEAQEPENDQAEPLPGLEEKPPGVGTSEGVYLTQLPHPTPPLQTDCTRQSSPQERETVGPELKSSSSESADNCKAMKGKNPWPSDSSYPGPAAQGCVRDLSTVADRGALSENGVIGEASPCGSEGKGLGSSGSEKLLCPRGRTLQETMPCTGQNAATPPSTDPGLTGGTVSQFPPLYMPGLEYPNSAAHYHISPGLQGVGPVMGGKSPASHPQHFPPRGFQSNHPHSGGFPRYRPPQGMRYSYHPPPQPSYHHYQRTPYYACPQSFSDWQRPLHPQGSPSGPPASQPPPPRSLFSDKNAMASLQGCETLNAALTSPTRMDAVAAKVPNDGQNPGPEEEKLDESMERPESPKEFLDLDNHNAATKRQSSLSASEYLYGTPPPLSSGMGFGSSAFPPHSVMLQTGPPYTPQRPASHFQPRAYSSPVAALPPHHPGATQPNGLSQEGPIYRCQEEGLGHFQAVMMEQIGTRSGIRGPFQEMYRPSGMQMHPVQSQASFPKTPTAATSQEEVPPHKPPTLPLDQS
Assay [2] deals with T1, ATPase family AAA domain-containing protein 2 (Homo sapiens, UniProt Q6PL18).
T1 sequence (Q6PL18 whole entry): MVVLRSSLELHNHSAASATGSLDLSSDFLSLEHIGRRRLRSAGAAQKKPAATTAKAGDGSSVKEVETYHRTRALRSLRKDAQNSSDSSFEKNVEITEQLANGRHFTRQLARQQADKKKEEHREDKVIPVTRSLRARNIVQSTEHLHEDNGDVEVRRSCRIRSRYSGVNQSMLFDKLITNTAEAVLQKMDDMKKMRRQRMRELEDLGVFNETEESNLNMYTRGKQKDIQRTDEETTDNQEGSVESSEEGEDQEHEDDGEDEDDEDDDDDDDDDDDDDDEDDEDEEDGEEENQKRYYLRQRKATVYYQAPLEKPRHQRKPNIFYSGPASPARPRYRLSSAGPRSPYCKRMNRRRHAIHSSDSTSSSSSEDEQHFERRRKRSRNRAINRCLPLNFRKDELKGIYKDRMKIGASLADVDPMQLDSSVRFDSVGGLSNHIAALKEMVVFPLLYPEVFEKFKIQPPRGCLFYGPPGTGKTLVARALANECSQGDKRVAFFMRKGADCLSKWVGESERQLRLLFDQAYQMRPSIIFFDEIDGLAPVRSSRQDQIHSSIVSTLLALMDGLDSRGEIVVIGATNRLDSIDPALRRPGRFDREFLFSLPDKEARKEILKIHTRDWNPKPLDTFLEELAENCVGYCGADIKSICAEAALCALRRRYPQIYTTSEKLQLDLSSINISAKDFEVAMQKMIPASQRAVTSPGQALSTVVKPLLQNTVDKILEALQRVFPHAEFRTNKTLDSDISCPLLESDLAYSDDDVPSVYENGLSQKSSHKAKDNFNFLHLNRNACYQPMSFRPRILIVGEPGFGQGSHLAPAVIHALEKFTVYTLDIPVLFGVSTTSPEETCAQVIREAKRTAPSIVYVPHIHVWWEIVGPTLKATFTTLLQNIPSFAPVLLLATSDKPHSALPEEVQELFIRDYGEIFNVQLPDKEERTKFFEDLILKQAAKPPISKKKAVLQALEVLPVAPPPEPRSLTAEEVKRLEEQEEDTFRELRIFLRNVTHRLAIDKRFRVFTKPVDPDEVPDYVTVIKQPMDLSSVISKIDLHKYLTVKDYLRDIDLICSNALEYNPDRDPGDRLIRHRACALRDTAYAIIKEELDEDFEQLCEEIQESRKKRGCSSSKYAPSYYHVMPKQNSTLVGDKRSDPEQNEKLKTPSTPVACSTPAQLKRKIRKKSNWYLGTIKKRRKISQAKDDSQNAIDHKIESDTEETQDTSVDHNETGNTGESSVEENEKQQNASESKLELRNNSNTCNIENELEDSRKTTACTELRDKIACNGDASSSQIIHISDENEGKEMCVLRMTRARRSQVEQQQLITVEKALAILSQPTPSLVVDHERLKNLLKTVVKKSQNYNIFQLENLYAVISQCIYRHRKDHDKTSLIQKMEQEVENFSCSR
The experiment in a line: Displacement of Alexa Fluor 488-labeled ligand from FLAG-6His-Tev-fused ATAD2 (981 to 1121 residue) (unknown origin) measured after 30 mins by TR-FRET assay.

Assay [3] has as its target Bromodomain-containing protein 4 (Homo sapiens, UniProt O60885, Y390A). The experiment in a line: Displacement of Alexa Fluor 647-labeled ligand from BRD4 BD1 Y390A mutant (1 to 477 residue) (unknown origin) measured after 30 mins by TR-FRET assay.

Turning to `C[C@H]1CCN(S(=O)(=O)c2cc(NC(=O)Cn3nnc4c3CCNC4)ccc2Br)C1`, the results for the pIC50 in assay [1], in assay [2] and in assay [3] were 6.60, 5.60 and 4.80, respectively.
On to `C[C@H]1CCN(S(=O)(=O)c2cc(NC(=O)Cc3noc4ccccc34)ccc2Br)C1`, for which the figures for the negative-log IC50 (pIC50) in assay [1], in assay [2] and in assay [3] were 6.60, 6.00 and 4.60, respectively.
As for `C[C@H]1CCN(S(=O)(=O)c2cc(NC(=O)Cn3c(=O)[nH]c4ccccc43)ccc2Br)C1`, the pIC50 was 6.30 in assay [1], 5.90 in assay [2] and below 4.30 in assay [3].
For `O=C(CN1C(=O)CNC1=O)Nc1ccc(Cl)c(S(=O)(=O)N2CCCCCC2)c1` the same measures were 4.90, 5.90 and below 4.30.
The like results for `C[C@H]1CCN(S(=O)(=O)c2cc(NC(=O)Cn3nnc4c3CCN(C)C4)ccc2Br)C1` were, in that order, 7.30, 5.70 and below 4.30.
The like results for `O=C(CN1C(=O)CNC1=O)Nc1ccc(Cl)c(S(=O)(=O)N2CCC3(CC3)C2)c1` were, in that order, 5.40, 6.00 and below 4.30.
On to `CC(=O)N1CCc2c(nnn2CC(=O)Nc2ccc(Br)c(S(=O)(=O)N3CC[C@H](C)C3)c2)C1`, for which the figures for the negative logarithm of the IC50 (pIC50) in assay [1], in assay [2] and in assay [3] were 7.00, 5.80 and below 4.30, respectively.
Consider `C[C@H]1CCN(S(=O)(=O)c2cc(NC(=O)Cn3nnc4c3CN(C)CC4)ccc2Br)C1`, for which the values for the pIC50 in assay [1], in assay [2] and in assay [3] were 6.60, 5.70 and below 4.30, respectively.
For `CC1CCCN1S(=O)(=O)c1cc(NC(=O)CN2C(=O)CNC2=O)ccc1Cl` (racemic) the same measures were 5.10, 5.60 and 4.50.
The like results for `C[C@@H]1CCN(S(=O)(=O)c2cc(NC(=O)CN3C(=O)CNC3=O)ccc2Cl)C1` were, in that order, 5.30, 6.00 and below 4.30.
With `O=C(CN1C(=O)CNC1=O)Nc1ccc(Cl)c(S(=O)(=O)N2CCC(C3CC3)C2)c1` (racemic), the pIC50 in assay [1] was 6.30; in assay [2] it was 6.30; in assay [3], below 4.30.
Consider `C[C@H]1CCN(S(=O)(=O)c2cc(NC(=O)Cn3c(=O)oc4ccccc43)ccc2Br)C1`, for which the pIC50 in assay [1] was 7.20; in assay [2] it was 5.70; in assay [3] it was 5.00.
The like results for `C[C@H]1CCN(S(=O)(=O)c2cc(NC(=O)Cn3nncc3CN(C)C)ccc2Br)C1` were, in that order, 7.10, 5.40 and below 4.30.
Regarding `O=C(CN1C(=O)CNC1=O)Nc1ccc(Cl)c(S(=O)(=O)N2CCCCC2)c1`, the pIC50 is 4.50 in assay [1], 5.60 in assay [2] and below 4.30 in assay [3].
Take `COCC1CCN(S(=O)(=O)c2cc(NC(=O)CN3C(=O)CNC3=O)ccc2Cl)C1` (racemic): the pIC50 in assay [1] was 5.40; in assay [2] it was 6.00; in assay [3], below 4.30.
Regarding `C[C@H]1CCN(S(=O)(=O)c2cc(NC(=O)CN3C(=O)CNC3=O)ccc2Cl)C1`, the pIC50 in assay [1] is 5.50; in assay [2] it was 6.10; in assay [3] it was below 4.30.
The like results for `CCC1CCN(S(=O)(=O)c2cc(NC(=O)CN3C(=O)CNC3=O)ccc2Cl)C1` (racemic) were, in that order, 5.90, 6.20 and below 4.30.
For `C[C@H]1CCN(S(=O)(=O)c2cc(NC(=O)Cn3cc(CN(C)C)nn3)ccc2Br)C1` the same measures were 6.60, 5.90 and below 4.30.
`COCc1cn(CC(=O)Nc2ccc(Br)c(S(=O)(=O)N3CC[C@H](C)C3)c2)nn1`: the pIC50 in assay [1] was 5.80; in assay [2], 5.60; in assay [3] it was below 4.30.
The like results for `CCCc1cnnn1CC(=O)Nc1ccc(Br)c(S(=O)(=O)N2CC[C@H](C)C2)c1` were, in that order, 7.10, 5.50 and 5.00.
For `Cc1nnn(CC(=O)Nc2ccc(Br)c(S(=O)(=O)N3CC[C@H](C)C3)c2)c1C` the same measures were 6.00, 5.20 and below 4.30.
For `CN1CCc2c(nnn2CC(=O)Nc2ccc(Br)c(S(=O)(=O)N3CC[C@@H](C4CC4)C3)c2)C1` the same measures were 7.40, 5.50 and 4.60.
For `C[C@H]1CCN(S(=O)(=O)c2cc(NC(=O)Cn3nnc4ccccc43)ccc2Br)C1`, the pIC50 in assay [1] was 6.70; in assay [2], 5.70; in assay [3], 4.80.
The like results for `C[C@@H]1CN(S(=O)(=O)c2cc(NC(=O)CN3C(=O)CNC3=O)ccc2Cl)C[C@H]1C` (racemic) were, in that order, 5.70, 6.60 and 4.70.
For `C[C@@]1(C2CC2)NC(=O)N(CC(=O)Nc2ccc(Br)c(S(=O)(=O)N3CCCC3)c2)C1=O` the same measures were 6.40, 6.60 and below 4.30.
For `CCCc1cn(CC(=O)Nc2ccc(Br)c(S(=O)(=O)N3CC[C@H](C)C3)c2)nn1` the same measures were 5.80, 5.80 and 4.40.
With `COCc1cnnn1CC(=O)Nc1ccc(Br)c(S(=O)(=O)N2CC[C@H](C)C2)c1`, the values for the pIC50 in assay [1], in assay [2] and in assay [3] were 6.60, 6.00 and 4.30, respectively.
The like results for `O=C(CN1C(=O)CNC1=O)Nc1ccc(Cl)c(S(=O)(=O)n2ccnc2)c1` were, in that order, below 4.00, below 4.00 and below 4.30.
Take `C[C@@H]1CN(S(=O)(=O)c2cc(NC(=O)CN3C(=O)NC(C)(C4CC4)C3=O)ccc2Br)C[C@H]1C` (relative stereo): the pIC50 is 6.90 in assay [1], 7.60 in assay [2] and 4.40 in assay [3].
The like results for `CC1(C)CCN(S(=O)(=O)c2cc(NC(=O)CN3C(=O)CNC3=O)ccc2Cl)C1` were, in that order, 4.60, 5.50 and below 4.30.
For `C[C@H]1CCN(S(=O)(=O)c2cc(NC(=O)Cc3coc4ccccc34)ccc2Br)C1` the same measures were 5.10, 5.60 and below 4.30.
For `CCN1CCc2c(nnn2CC(=O)Nc2ccc(Br)c(S(=O)(=O)N3CC[C@H](C)C3)c2)C1` the same measures were 7.30, 5.60 and 4.50.
`CN1CCc2c(nnn2CC(=O)Nc2ccc(Cl)c(S(=O)(=O)N3CC[C@@H](C4CC4)C3)c2)C1`: the negative logarithm of the IC50 (pIC50) in assay [1] was 6.90; in assay [2], 5.20; in assay [3], 4.40.
For `CC(C)N1CCc2c(nnn2CC(=O)Nc2ccc(Br)c(S(=O)(=O)N3CC[C@H](C)C3)c2)C1`, the negative-log IC50 (pIC50) in assay [1] was 7.50; in assay [2], 5.70; in assay [3], 4.30.
For `C[C@H]1CCN(S(=O)(=O)c2cc(NC(=O)Cn3ccnn3)ccc2Br)C1` the same measures were 5.40, 5.40 and below 4.30.
As for `C[C@@H]1CN(S(=O)(=O)c2cc(NC(=O)CN3C(=O)CNC3=O)ccc2Cl)C[C@@H]1C`, the pIC50 in assay [1] was 4.70; in assay [2] it was 5.70; in assay [3], below 4.30.
The like results for `O=C(CN1C(=O)CNC1=O)Nc1ccc(Cl)c(S(=O)(=O)C2CCCCC2)c1` were, in that order, below 4.00, below 4.00 and below 4.30.
For `C[C@H]1CCN(S(=O)(=O)c2cc(NC(=O)CN3C(=O)N[C@](C)(C4CC4)C3=O)ccc2Br)C1` the same measures were 6.90, 7.00 and below 4.30.
